Experimental data published in ChEMBL document CHEMBL1201862, “PubChem BioAssay data set” (2004).
Activity calls are given as the source filed them.

Experiments:
Cytochrome P450 2D6 = Cytochrome P450 2D6 (Homo sapiens, UniProt P10635);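 also: CYP2D6 member of a cytochrome P450 panel assay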
Cytochrome P450 2C9 = Cytochrome P450 2C9 (Homo sapiens, UniProt P11712)
Tumor necrosis factor = Tumor necrosis factor (Homo sapiens, UniProt P01375); test: analog potency on TNFa NF-kB signaling – cell-based, revised, SAR follow-up (AID 2337); format: functional
[1] = biological target: Induced myeloid leukemia cell differentiation protein Mcl-1 (Homo sapiens, UniProt Q07820); format: functional
Chain of Induced myeloid leukemia cell differentiation protein Mcl-1 (Q07820 whole entry): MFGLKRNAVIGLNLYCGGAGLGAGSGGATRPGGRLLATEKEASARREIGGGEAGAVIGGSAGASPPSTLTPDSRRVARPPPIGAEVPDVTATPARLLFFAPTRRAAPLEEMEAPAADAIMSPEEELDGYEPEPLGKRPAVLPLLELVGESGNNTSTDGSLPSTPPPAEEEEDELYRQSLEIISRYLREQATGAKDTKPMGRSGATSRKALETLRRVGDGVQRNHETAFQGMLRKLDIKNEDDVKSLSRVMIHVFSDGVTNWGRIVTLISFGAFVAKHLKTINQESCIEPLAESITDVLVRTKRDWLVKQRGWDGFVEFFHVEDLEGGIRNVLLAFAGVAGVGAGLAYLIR

HEK293 [2] = test: cells; format: functional, cell-based; conditions: Homo sapiens
HEK293 [3] = test: NOD2 signaling inhibitors in MDP-stimulated cells, cell-based, uHTS, luminescence (AID 2001); format: functional; conditions: Homo sapiens
[4] = biological target: Nucleotide-binding oligomerization domain-containing protein 2 (Homo sapiens, UniProt Q9HC29); test: inhibition of NOD2-driven NF-kB reporter – cell-based, luminescence, uHTS, HEK293 (AID 1566); format: functional
Chain of Nucleotide-binding oligomerization domain-containing protein 2 (Q9HC29 whole entry, the tested form may be a part): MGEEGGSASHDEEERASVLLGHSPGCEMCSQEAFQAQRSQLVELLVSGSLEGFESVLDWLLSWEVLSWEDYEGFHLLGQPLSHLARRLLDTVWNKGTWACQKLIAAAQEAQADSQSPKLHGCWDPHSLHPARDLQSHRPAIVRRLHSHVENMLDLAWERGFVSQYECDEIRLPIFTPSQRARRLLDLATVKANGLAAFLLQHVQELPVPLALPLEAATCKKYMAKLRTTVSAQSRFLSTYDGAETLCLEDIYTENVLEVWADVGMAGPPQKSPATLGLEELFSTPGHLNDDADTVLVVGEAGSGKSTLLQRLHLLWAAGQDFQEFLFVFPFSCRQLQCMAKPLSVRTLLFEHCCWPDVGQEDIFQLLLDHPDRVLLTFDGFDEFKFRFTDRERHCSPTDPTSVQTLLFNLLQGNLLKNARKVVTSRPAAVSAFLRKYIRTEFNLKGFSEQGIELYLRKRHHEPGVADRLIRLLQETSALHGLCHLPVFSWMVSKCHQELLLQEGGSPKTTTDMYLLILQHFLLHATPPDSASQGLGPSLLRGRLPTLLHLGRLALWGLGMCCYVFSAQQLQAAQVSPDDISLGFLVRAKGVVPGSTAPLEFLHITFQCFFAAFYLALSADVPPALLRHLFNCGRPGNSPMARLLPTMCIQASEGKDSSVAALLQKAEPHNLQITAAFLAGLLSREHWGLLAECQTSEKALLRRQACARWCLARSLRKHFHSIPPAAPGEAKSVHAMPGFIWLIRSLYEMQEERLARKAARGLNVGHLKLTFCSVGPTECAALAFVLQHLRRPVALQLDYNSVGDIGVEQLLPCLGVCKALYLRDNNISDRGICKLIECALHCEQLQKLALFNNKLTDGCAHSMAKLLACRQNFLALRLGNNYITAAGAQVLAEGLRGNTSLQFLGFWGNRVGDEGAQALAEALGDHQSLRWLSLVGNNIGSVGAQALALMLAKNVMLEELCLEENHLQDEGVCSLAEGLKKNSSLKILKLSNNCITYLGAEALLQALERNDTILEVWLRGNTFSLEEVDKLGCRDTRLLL

HEK293 [5] = test: inhibition of NOD1-driven NF-kB reporter – cell-based, luminescence, uHTS, primary screen (AID 1578); format: functional; conditions: Homo sapiens
HEK293 [6] = test: cells; format: functional, cell-based; conditions: Homo sapiens; remark: listed apart in the source
HEK293 [7] = test: cells; format: functional, cell-based; conditions: Homo sapiens; remark: listed apart in the source
HEK293 [8] = test: cells; conditions: Homo sapiens
[9] = HEK-293T viability loss after treatment – luminescence, T-cell screen hits, cytotoxicity control for TCR NF-kB inhibitor project, dose response (AID 489026); format: functional, cell-based;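 also: cells exposed to compound about 14 hours before the viability readout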
[10] = biological target: Nucleotide-binding oligomerization domain-containing protein 1 (Homo sapiens, UniProt Q9Y239); test: blockers of NOD1 pathway activity – revised, SAR follow-up (AID 2333); format: functional
Chain of Nucleotide-binding oligomerization domain-containing protein 1 (Q9Y239 whole entry, the tested form may be a part): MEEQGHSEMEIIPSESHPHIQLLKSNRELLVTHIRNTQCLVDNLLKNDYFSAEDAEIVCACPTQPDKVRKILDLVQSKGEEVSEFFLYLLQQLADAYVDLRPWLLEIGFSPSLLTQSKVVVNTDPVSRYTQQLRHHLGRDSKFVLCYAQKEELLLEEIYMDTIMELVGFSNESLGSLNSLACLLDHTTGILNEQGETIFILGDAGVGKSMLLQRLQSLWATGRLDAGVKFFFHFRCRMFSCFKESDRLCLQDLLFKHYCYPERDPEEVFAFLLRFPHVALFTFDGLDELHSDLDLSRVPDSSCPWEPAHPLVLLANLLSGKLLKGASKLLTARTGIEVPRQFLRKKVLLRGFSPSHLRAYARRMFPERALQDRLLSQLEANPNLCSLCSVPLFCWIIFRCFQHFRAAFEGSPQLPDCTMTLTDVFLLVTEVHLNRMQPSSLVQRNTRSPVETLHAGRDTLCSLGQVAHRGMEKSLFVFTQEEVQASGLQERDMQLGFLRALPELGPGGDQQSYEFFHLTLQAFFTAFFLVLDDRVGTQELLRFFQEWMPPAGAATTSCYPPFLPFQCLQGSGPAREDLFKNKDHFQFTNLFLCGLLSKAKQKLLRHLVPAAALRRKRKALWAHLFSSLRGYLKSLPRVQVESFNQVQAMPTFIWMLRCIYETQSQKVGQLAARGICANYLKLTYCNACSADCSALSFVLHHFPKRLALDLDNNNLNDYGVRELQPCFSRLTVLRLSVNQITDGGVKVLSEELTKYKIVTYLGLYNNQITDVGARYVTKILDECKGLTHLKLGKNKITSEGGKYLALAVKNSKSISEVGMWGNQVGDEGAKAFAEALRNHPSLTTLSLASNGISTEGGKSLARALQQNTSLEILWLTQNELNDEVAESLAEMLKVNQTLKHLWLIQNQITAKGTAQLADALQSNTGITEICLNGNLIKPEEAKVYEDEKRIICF

CAAX prenyl protease 2 [11] = biological target: CAAX prenyl protease 2 (Saccharomyces cerevisiae S288c, UniProt Q03530); format: biochemical
Chain of CAAX prenyl protease 2 (Saccharomyces cerevisiae S288c, UniProt Q03530) (Q03530 whole entry): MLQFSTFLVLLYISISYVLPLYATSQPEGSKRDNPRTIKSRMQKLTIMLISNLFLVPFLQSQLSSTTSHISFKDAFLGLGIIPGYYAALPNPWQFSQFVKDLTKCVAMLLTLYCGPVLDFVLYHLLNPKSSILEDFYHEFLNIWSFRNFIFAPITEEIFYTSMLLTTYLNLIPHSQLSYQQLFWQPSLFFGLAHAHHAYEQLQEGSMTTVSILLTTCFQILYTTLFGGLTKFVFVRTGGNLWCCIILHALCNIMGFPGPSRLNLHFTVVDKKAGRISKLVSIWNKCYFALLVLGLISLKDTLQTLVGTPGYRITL

[12] = biological target: T1, Calpain-2 catalytic subunit (Sus scrofa, UniProt P43367); test: m-calpain protease blockers, concentration series – biochemical, fluorogenic peptide substrate, dose response (AID 1420); format: functional
T1 sequence (P43367 whole entry): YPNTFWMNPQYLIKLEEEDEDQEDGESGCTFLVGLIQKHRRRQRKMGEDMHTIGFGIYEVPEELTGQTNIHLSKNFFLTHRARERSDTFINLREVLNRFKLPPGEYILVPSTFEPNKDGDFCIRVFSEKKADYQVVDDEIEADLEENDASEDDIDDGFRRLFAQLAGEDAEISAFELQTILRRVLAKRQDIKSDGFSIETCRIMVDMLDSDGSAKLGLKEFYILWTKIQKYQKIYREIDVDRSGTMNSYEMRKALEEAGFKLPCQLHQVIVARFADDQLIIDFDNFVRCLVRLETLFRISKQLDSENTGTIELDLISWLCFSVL

Trypsin = Trypsin (Sus scrofa, UniProt P00761); test: trypsin protease activity blockade – biochemical, quenched peptide fluorescence, cherry-pick, selectivity assay for Rce1 protease inhibitor project, dose response (AID 488789)
[13] = biological target: T2, Sentrin-specific protease 8 (Homo sapiens, UniProt Q96LD8); format: functional;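 also: luminescence read-out of SENP8 inhibition, dose-response confirmation following an ultra-high-throughput screen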
T2 sequence (Q96LD8 whole entry): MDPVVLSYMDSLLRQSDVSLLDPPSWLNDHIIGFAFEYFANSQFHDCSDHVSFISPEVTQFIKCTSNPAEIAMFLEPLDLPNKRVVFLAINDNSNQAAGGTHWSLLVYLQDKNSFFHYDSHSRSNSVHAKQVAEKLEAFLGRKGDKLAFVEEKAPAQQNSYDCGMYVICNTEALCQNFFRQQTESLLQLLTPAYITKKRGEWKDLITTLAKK

[14] = biological target: T3, Sentrin-specific protease 7 (Homo sapiens, UniProt Q9BQF6); format: functional;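 also: Luminescence-based dose-response confirmation of ultra-high-throughput screening hits, measuring inhibition of SENP7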
T3 sequence (Q9BQF6 whole entry): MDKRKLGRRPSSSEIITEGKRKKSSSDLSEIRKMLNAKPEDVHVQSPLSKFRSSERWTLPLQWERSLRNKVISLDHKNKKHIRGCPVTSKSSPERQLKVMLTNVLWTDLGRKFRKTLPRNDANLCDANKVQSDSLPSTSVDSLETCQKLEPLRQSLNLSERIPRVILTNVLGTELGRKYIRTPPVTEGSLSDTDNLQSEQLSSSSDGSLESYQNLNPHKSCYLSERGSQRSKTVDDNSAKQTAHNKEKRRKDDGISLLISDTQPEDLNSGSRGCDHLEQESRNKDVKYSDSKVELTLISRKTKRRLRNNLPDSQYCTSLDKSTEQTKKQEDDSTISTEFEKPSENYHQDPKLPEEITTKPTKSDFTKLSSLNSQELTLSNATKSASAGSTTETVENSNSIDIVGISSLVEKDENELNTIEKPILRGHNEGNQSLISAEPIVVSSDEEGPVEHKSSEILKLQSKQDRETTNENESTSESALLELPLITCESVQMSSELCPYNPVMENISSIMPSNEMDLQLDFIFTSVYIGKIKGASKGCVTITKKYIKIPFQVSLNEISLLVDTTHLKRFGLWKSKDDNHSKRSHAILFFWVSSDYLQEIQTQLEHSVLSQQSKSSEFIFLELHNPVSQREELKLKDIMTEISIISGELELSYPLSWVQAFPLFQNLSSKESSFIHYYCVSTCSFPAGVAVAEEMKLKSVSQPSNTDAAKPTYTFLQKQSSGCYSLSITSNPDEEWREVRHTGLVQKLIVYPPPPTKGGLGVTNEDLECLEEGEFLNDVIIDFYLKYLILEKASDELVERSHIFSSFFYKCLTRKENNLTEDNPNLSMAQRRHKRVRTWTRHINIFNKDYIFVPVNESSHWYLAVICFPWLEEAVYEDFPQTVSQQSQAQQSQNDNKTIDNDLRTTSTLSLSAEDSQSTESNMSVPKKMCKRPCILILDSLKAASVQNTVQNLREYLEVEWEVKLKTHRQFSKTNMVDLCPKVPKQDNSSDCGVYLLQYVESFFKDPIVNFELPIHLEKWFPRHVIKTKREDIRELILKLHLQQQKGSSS

Genome polyprotein = Genome polyprotein (dengue virus type 2, UniProt P29990); test: flavivirus cap methylation enzyme inhibition – biochemical, confirmation dose response, primary screen (AID 588689); format: functional
Chain of Genome polyprotein (P29990 2492-3391 limits assumed): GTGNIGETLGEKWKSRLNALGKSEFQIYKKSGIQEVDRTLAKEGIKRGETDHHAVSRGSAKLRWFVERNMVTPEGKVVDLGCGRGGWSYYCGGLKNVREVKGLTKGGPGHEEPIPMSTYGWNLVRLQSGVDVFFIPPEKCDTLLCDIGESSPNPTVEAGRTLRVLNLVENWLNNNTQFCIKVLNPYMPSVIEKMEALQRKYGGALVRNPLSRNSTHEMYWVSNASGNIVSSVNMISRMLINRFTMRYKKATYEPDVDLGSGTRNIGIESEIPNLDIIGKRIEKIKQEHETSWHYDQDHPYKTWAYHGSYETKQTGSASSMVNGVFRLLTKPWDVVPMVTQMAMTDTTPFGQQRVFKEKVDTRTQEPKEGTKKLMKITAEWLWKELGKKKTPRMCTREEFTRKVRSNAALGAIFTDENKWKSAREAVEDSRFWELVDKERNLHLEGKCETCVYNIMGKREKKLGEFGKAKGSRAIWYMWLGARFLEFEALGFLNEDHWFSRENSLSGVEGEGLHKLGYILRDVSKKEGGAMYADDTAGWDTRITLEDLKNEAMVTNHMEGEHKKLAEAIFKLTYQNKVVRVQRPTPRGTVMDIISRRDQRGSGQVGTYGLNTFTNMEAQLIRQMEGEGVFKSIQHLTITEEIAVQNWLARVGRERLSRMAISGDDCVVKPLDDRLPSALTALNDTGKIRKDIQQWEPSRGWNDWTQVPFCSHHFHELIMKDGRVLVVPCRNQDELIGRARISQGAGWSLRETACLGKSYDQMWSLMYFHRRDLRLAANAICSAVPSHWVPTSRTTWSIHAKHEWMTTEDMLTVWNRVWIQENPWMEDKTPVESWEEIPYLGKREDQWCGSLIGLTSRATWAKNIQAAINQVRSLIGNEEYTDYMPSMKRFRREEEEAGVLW

Caspase-3 = biological target: T4, Caspase-3 (Homo sapiens, UniProt P42574); format: functional;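 also: Dose-response selectivity test against caspase-3 for candidate inhibitors of sentrin-specific proteases (SENPs)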
T4 sequence (P42574 whole entry): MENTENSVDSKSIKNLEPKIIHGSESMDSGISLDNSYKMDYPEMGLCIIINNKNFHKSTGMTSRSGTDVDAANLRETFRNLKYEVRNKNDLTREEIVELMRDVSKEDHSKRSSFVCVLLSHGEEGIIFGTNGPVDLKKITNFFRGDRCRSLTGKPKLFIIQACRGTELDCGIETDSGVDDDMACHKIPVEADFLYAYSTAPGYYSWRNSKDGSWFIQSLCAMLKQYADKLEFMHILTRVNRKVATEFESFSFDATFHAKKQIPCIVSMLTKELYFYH

[15] = biological target: T5, Sentrin-specific protease 6 (Homo sapiens, UniProt Q9GZR1); format: functional;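 also: Luminescence-based dose-response confirmatory assay of SENP6 inhibition, following up an ultra-high-throughput screen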
T5 sequence (Q9GZR1 whole entry): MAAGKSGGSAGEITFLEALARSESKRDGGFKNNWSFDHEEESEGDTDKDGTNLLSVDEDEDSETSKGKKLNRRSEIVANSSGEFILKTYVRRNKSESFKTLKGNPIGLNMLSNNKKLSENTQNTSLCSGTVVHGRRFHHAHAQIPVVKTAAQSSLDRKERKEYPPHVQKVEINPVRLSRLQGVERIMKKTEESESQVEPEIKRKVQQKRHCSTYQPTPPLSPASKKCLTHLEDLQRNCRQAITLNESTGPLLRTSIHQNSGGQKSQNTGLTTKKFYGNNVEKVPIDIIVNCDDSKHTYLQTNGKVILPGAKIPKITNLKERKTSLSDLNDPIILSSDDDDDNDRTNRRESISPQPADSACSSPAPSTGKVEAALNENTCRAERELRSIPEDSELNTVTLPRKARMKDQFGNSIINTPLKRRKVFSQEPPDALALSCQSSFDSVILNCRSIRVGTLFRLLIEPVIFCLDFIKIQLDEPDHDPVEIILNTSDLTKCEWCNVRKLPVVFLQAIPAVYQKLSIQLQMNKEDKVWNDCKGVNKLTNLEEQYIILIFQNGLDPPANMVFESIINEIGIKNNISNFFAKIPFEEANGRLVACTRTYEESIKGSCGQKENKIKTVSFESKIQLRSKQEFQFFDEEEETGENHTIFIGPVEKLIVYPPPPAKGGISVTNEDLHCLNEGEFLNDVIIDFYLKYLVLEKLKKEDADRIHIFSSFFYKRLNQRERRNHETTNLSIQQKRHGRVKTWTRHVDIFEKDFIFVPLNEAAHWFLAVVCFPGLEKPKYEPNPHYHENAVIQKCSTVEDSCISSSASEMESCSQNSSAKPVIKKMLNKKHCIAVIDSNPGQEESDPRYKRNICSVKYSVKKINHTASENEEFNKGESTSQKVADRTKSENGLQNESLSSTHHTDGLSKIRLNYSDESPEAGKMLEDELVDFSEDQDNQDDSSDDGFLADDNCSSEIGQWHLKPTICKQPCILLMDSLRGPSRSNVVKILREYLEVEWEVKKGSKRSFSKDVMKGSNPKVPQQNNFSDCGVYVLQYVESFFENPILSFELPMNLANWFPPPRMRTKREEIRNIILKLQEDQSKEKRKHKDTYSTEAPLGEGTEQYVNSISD

[16] = biological target: FAD-linked sulfhydryl oxidase ALR (Homo sapiens, UniProt P55789); test: ALR-catalysed DTT oxidation blockers – biochemical, H2O2 detection, luminescence, cherry-pick, dose response (AID 493248)
CAAX prenyl protease 1 = CAAX prenyl protease 1 (Saccharomyces cerevisiae S288c, UniProt P47154); test: yeast CAAX protease Ste24 inhibition – biochemical, S. cerevisiae, plate reader, cherry-pick, dose response (AID 488815)
Chain of CAAX prenyl protease 1 (P47154 whole entry): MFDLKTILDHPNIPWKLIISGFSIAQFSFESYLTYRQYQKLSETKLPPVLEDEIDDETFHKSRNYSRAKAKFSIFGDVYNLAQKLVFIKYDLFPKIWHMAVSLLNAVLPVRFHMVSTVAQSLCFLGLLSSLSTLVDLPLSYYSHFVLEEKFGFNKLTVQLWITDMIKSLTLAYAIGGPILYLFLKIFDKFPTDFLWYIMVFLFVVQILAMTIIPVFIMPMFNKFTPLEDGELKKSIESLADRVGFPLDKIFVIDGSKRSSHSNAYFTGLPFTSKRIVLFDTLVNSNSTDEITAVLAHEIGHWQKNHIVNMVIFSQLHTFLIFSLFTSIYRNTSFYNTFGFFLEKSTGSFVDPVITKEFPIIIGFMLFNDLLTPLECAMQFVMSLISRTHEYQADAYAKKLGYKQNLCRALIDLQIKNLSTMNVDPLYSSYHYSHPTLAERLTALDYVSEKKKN

CAAX prenyl protease 2 [17] = biological target: CAAX prenyl protease 2 (Homo sapiens, UniProt Q9Y256); test: inhibition of Ras-converting CAAX protease Rce1 – biochemical, yeast membranes, quenched-peptide fluorescence, cherry-pick, dose response (AID 588849)

Chain of Cytochrome P450 2C9 (P11712 whole entry): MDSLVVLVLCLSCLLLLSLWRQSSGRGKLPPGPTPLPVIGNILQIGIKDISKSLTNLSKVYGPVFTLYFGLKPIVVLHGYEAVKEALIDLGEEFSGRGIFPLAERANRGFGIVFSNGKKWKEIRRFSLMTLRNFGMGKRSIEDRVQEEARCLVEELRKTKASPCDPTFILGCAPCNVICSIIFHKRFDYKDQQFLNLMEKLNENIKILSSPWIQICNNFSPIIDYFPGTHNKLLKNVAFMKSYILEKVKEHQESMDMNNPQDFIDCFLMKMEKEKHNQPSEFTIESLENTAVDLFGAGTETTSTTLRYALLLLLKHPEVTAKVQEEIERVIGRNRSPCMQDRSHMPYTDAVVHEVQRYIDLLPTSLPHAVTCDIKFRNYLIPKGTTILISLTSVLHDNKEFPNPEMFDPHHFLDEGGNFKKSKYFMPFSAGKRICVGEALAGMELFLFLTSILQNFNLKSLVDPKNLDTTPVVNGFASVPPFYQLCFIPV
Chain of Cytochrome P450 2D6 (P10635 whole entry): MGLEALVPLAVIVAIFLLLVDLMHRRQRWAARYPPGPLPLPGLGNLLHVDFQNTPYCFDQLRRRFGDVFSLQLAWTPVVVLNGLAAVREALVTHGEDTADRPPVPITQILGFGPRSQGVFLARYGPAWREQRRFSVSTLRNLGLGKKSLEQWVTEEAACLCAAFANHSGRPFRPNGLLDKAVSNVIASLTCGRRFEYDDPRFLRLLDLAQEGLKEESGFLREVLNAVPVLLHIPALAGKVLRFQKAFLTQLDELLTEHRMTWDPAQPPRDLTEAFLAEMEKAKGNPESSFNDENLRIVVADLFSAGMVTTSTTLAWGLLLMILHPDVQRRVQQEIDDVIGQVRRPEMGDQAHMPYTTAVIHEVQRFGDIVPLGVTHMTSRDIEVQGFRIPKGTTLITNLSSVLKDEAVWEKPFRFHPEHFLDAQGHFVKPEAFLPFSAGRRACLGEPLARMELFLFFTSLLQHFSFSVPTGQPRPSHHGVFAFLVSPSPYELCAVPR

Nn1c(SCC(=O)N2CCOCC2)nnc1-c1ccccc1Cl
inconclusive: AC50 (Cytochrome P450 2D6) | AC50 (Cytochrome P450 2C9) 0.0794 µM

COC(=O)c1ccc2nc(Nc3nc4c(F)cc(F)cc4s3)sc2c1
active: IC50 (Tumor necrosis factor) 0.23 µM | IC50 [1] 2.8 µM | IC50 (HEK293 [3]) 1.92 µM | EC50 [4] 0.3 µM | EC50 (HEK293 [5]) 3.03 µM | IC50 (HEK293 [7]) 0.666 µM | IC50 (HEK293 [8]) 9.76 µM | IC50 [10] 0.429 µM
inactive: IC50 (HEK293 [2]) > 20 µM | IC50 (HEK293 [6]) > 20 µM | IC50 [9] > 80 µM

O=C(O)c1ccc(N/N=C/c2cn(Cc3ccccc3F)c3ccccc23)cc1
< 0.4 µM (not active): IC50 [12]
active: AC50 (CAAX prenyl protease 2 [11]) 4.78 µM | AC50 (Trypsin) 13.8 µM | IC50 [13] 2.92 µM | IC50 [14] 3.24 µM | IC50 (Genome polyprotein) 64.1 µM | IC50 (Caspase-3) 22.7 µM | IC50 [15] 2.6 µM | AC50 [16] 2.1 µM | AC50 (CAAX prenyl protease 1) 5.53 µM | AC50 (CAAX prenyl protease 2 [17]) 5.18 µM
